Data published in patent publication US4666924A, “Certain pyridyl substituted aminomethyl benzene derivatives having anti-arrhythmic activity” (priority 1984, dated 1987).
Like-named read-outs stand apart in the source and are kept apart here.

Experiments:
[1] = tested on: Harris dog (ventricular arrhythmias); assay: Antiarrhythmic activity by coronary ligation in the Harris dog model; assay type: in vivo, adult mongrel dogs; settings: for minimal effective dose: Canis lupus familiaris, 5 min, read-out: Antiarrhythmic ED in Harris Dog (effective dose required to sustain normal sinus rhythm)
From the text: The following examples describe the pharmacological evaluation of the compounds made in accordance with the present invention. In particular, these examples describe the evaluation of antiarrhythmic activity by coronary ligation in the well known Harris dog model. Ventricular arrhythmias were induced in adult mongrel dogs (10-15 kg) of either sex by two-state ligation of the left anterior descending coronary artery. […] The test compound in saline was infused intravenously at a cumulative rate of 0.3 mg/kg/min (base) until normal sinus rhythm or toxicity occurred. Normal sinus rhythm was defined as 90-100% normal complexes over a 5 min period.

[2] = tested on: guinea pig ileum; assay: In vitro anticholinergic activity in the isolated guinea pig ileum (field stimulation); assay type: cell-based, male Hartley guinea pigs; settings: for inhibition at 4 µg/mL: Cavia porcellus, read-out: Anticholinergic Inhibition of Guinea Pig Ileum
Procedure: The following examples describe the in vitro evaluation of anticholinergic activity in the isolated guinea pig ileum. Fasted, male Hartley guinea pigs (300-400 g) were killed by a blow to the head. […] One end of the ileal strip was impaled onto a platinum wire electrode; and the other end was tied to a stationary glass rod. Basal tension was set at 0.1-0.3 g and peak developed tension in response to field stimulation (100-150 V, 10 msec pulse duration, 0.2 Hz) was measured with a tension transducer.

[3] = tested on: cardiac cells; settings: cited from earlier work; for effects on impulse formation, conduction velocity and refractory period: cardiac cells
[4] = tested on: patients; settings: cited from earlier work
[5] = tested on: vagal stimulation of the heart and peripheral parasympathetic stimulation; settings: cited from earlier work
[6] = IV infusion in saline, cumulative rate 0.3 mg/kg/min (base), day after two-stage ligation of left anterior descending coronary artery, normal sinus rhythm = 90-100% normal complexes over 5 min
[7] = at 4 mg/L, field stimulation 100-150 V, 10 msec, 0.2 Hz
[8] = patients, management of arrhythmias

In the case of `C=C[C@H]1C[N@@]2CC[C@H]1C[C@@H]2[C@@H](O)c1ccnc2ccc(OC)cc12` (stereo in doubt) [Quinidine, 6-methoxy-α-(5'-vinyl-2-quinuclidinyl)-4-quindinemethanol], the minimal effective dose [1, 6] is listed as 10.1 mg/kg, the inhibition at 4 µg/mL [2, 7] is listed as 62% and the “effects on impulse formation, conduction velocity and refractory period” value [3] is listed as “depress impulse formation, slow conduction velocity, and increase the duration of the refractory period of cardiac cells”. For the same compound, the adverse side-effects ([4]; human, in vivo) was “cardiotoxicity, diarrhea, nausea, vomiting, fever, hypertension and depression of myocardial contractility” and the anticholinergic action [5] was “indirect anticholinergic actions”.

For `Oc1c(CN2CCCC2)cc(Nc2ncnc3ccccc23)cc1CN1CCCC1` [Changrolin, 4-[3',5'-bis[N-pyrolidinylmethyl]-4'-hydroxyanilino]-quinazoline], the minimal effective dose [1, 6] is listed as 10.3 mg/kg, the inhibition at 4 µg/mL [2, 7] is listed as 43% and the “antiarrhythmic effectiveness of known agent” value ([3]; background statement) is listed as “effective antiarrhythmic agent”. For the same compound, the adverse side-effects [4, 8] was “skin discoloration in some patients” and the anticholinergic action [5] was “substantial anticholinergic activity”.

For `CC(C)N(CCC(C(N)=O)(c1ccccc1)c1ccccn1)C(C)C` (stereo not drawn) [Disopyramide, α[2-(diisopropylamino)-ethyl]α-phenol-2-pyridineacetamide], the minimal effective dose ([1]; iv) is given as 6.8 mg/kg, the inhibition at 4 µg/mL [2] is given as 81% and the “effects on impulse formation, conduction velocity and refractory period” value [3] is given as “depress impulse formation, slow conduction velocity, and increase the duration of the refractory period of cardiac cells”. The adverse side-effects [4, 8] was “dryness of the mouth, blurred vision, constipation, and urinary retention, and depression of myocardial contractility” and the anticholinergic action [5] was “indirect anticholinergic actions”.

For `Nc1cc(CN2CCCC2)c(O)c(CN2CCCC2)c1` [Example I, 3,5-bis(N-pyrrolidinylmethyl)-4-hydroxyaniline], the “Antiarrhythmic ED in Harris Dog (effective dose required to sustain normal sinus rhythm)” value (“Antiarrhythmic ED in Harris Dog” below) [1, 6] was “inactive” and the inhibition at 4 µg/mL [2, 7] was 3%.

With `Oc1ccc(Nc2ncnc3ccccc23)cc1` [Example II, 4-(4'-hydroxyanilino)-quinazoline] the “Antiarrhythmic ED in Harris Dog” value [1, 6] was “inactive” and the inhibition at 4 µg/mL [2, 7] was 13%.

For `Oc1ccc(Nc2nncc3ccccc23)cc1` [Example III, 1-(4'-hydroxyanilino)phthalazine], the “Antiarrhythmic ED in Harris Dog” value [1, 6] was “inactive” and the inhibition at 4 µg/mL [2, 7] was 23%.

Compound `Oc1c(CN2CCCC2)cc(Nc2nncc3ccccc23)cc1CN1CCCC1` [Example IV, 1[3',5'-bis[N-pyrrolidinylmethyl]-4'-hydroxyanilino]-phthalazine] has a minimal effective dose [1, 6] of 1.5 mg/kg and an inhibition at 4 µg/mL [2, 7] of 83%.

Compound `Oc1c(CN2CCCC2)cc(Nc2nnc(Cl)c3ccccc23)cc1CN1CCCC1` [Example V, 1-N-[3',5'-bis(N-pyrrolidinylmethyl)-4'-hydroxyanilino]-4-chlorophthalazine] has a minimal effective dose [1, 6] of 2.5 mg/kg and an inhibition at 4 µg/mL [2, 7] of 76%.

In the case of `Oc1c(CN2CCCC2)cc(Nc2ccc(Cl)nn2)cc1CN1CCCC1` [Example X, 3-N-[3',5'-bis(N-pyrrolidinylmethyl)-4'-hydroxyanilino]-6-chloropyridazine], the minimal effective dose [1, 6] is reported as 10.5 mg/kg and the inhibition at 4 µg/mL [2, 7] is reported as 40%.

In the case of `Oc1c(CN2CCCC2)cc(Nc2ncccn2)cc1CN1CCCC1` [Example XI, 2-N-[3',5'-bis(pyrrolidinylmethyl)-4'-hydroxyanilino]-pyrimidine], the “Antiarrhythmic ED in Harris Dog” value [1, 6] is reported as “low activity” and the inhibition at 4 µg/mL [2, 7] is reported as 6%.

`Cc1cc(Nc2cc(CN3CCCC3)c(O)c(CN3CCCC3)c2)c2ccccc2n1` [Example XIV, 2-methyl-4-[3',5'-bis(N-pyrrolidinylmethyl)]-4'-hydroxyanilinoquinoline] gave a minimal effective dose [1, 6] of 9.5 mg/kg.

With `Oc1c(CN2CCCC2)cc(Nc2ccnc3cc(Cl)ccc23)cc1CN1CCCC1` [Example XV, 4-[3',5'-bis(N-pyrrolidinylmethyl)-4'-hydroxyanilino]-7-chloroquinoline] the “Antiarrhythmic ED in Harris Dog” value [1, 6] was “low activity” and the inhibition at 4 µg/mL [2, 7] was 27%.

For `Oc1c(CN2CCCC2)cc(Nc2ccnc3ccccc23)cc1CN1CCCC1` [Example XVI, 4-[3',5'-bis(N-pyrrolidinylmethyl)-4'-hydroxyanilino]-quinoline], the “Antiarrhythmic ED in Harris Dog” value [1, 6] was “low activity” and the inhibition at 4 µg/mL [2, 7] was 19%.

For `Oc1c(CN2CCCC2)cc(Nc2ccc3ccccc3n2)cc1CN1CCCC1` [Example XVII, 2-[3',5'-bis(N-pyrrolidinylmethyl)-4'-hydroxyanilino]-quinoline], the minimal effective dose [1, 6] was 6 mg/kg and the inhibition at 4 µg/mL [2, 7] was 50%.

`CN(C)Cc1cc(Nc2nncc3ccccc23)cc(CN(C)C)c1O` [IX] gave a minimal effective dose [1, 6] of 14 mg/kg and an inhibition at 4 µg/mL [2, 7] of 14%.

`Oc1ccc(Nc2nnc(Cl)c3ccccc23)cc1CN1CCCC1` [VI, 1-N-[3'-N-pyrrolidinylmethyl-4'-hydroxyanilino]-4-chlorophthalazine] showed a minimal effective dose [1, 6] of 17 mg/kg and an inhibition at 4 µg/mL [2, 7] of 65%.

With `COc1nnc(Nc2cc(CN3CCCC3)c(O)c(CN3CCCC3)c2)c2ccccc12` [VII, 1-N-[3',5'-bis(pyrrolidinylmethyl)-4'-hydroxyanilino]-4-methoxyphthalazine] the “Antiarrhythmic ED in Harris Dog” value [1, 6] was “low activity” and the inhibition at 4 µg/mL [2, 7] was 84%.

In the case of `Oc1c(CN2CCCC2)cc(Nc2nccc3ccccc23)cc1CN1CCCC1` [VIII, 1-N-[3',5'-bis(pyrrolidinylmethyl)-4'-hydroxyanilino]-isoquinoline], the minimal effective dose [1, 6] is reported as 1.1 mg/kg and the “Anticholinergic Inhibition of Guinea Pig Ileum” value [2, 7] is reported as “active”.

Work on `COc1cc2c(Nc3cc(CN4CCCC4)c(O)c(CN4CCCC4)c3)ncnc2c(OC)c1OC` [XII, 4-[3',5'-bis(pyrrolidinylmethyl)-4'-hydroxyanilino]-6,7,8-trimethoxyquinazoline] yielded an inhibition at 4 µg/mL [2, 7] of 14%.

`Oc1c(CN2CCCC2)cc(Nc2ccnc3cc(C(F)(F)F)ccc23)cc1CN1CCCC1` [XIII, 4-[3',5'-bis(N-pyrrolidinylmethyl)-4'-hydroxyanilino]-7-trifluoromethylquinoline] gave a minimal effective dose [1, 6] of 3 mg/kg and an inhibition at 4 µg/mL [2, 7] of 36%.

`Oc1c(CN2CCCC2)cc(CNc2nnc(Cl)c3ccccc23)cc1CN1CCCC1` [XIX, 1-N-[3',5'-bis(N-pyrrolidinylmethyl)-4'-hydroxybenzylamino]-4-chlorophthalazine] gave a minimal effective dose [1, 6] of 4.5 mg/kg and an inhibition at 4 µg/mL [2, 7] of 78%.

In the case of `Oc1ccc(Nc2ccc3ccccc3n2)cc1CN1CCCC1` [XVIII, 2-[3'-(N-pyrrolidinylmethyl)-4'-hydroxyanilino]-quinoline], the minimal effective dose [1, 6] is reported as 11 mg/kg and the inhibition at 4 µg/mL [2, 7] is reported as 72%.

With `Clc1nnc(Nc2cc(CN3CCCC3)cc(CN3CCCC3)c2)c2ccccc12` [XXI] the minimal effective dose [1, 6] was 3 mg/kg and the inhibition at 4 µg/mL [2, 7] was 93%.

`Oc1c(CN2CCCC2)cc(Nc2ccncc2)cc1CN1CCCC1` [XX] gave a minimal effective dose [1, 6] of 8 mg/kg and an inhibition at 4 µg/mL [2, 7] of 5%.
